{"source": "patent US12527785B2", "about": "“Renin-angiotensin-aldosterone system (RAAS) inhibitors in the treatment of pancreatic ductal carcinoma” (OCHSNER CLINIC FOUNDATION, priority 2023, dated 2026)", "experiment": "Toxicity, body weight and deaths observed in the in vivo xenograft studies", "description": "Human PDCA cell line PANC-1 was transduced with pre-made lentiviral vectors encoding luciferase (firefly)/red fluorescent protein (RFP) to enable monitoring of the growth of primary tumor and metastasis. […] For in vivo experiments, Nonobese diabetic/severe combined immunodeficiencyNOD-SCID mice (Jackson Labs, Bar Harbor, ME, or inhouse breeding) were first brought under anesthesia with isoflurane (2.5% in 100% oxygen, 1 L/min) in an induction chamber and maintained under adequate anesthesia (isoflurane inhalation) while being laid on a warming pad throughout the surgical procedure. For tumor generation, 5×10^4 luciferase-tagged PANC-1 cells were co-inoculated with 3×10^5 lymph node stromal cell (LNSC) analog HK cells. The mice received a 0.75-1.2 cm long incision (on the left side of the body slightly medial to the splenic silhouette) to exteriorize the spleen and pancreas. While gently retracting the pancreas laterally, a 30 G needle was inserted along the length of the pancreas from the tail to the pancreatic head region. Then, 10 μl of cell suspension was injected as the needle was withdrawn to the mid-body of the pancreas. The needle was removed, and the area was inspected for leakage and bleeding. The pancreas and spleen were internalized with forceps and the abdominal muscle layer was closed with interrupted stitches (3-0 silk suture). The overlying skin was closed with a second set of interrupted stitches. Buprenorphine SR-LAB was injected subcutaneously immediately after the surgery for pain relief.\nAfter the surgery, tumor growth and metastatic tumor burden were monitored and assessed weekly for luciferase activity by bioluminescence imaging (BLI) using Lago Imaging System (Spectral Instruments Imaging, Tucson, AZ). Mice were anesthetized using isoflurane for all imaging procedures. Mice were administered intraperitoneally with luciferin (10 mg/kg) and imaged in 10-20 minutes for maximum luciferase signal plateau. Images were analyzed using Aura Imaging software. […] […] […] Data was statistically analyzed using t-test, or t-test with Bonferroni correction.", "data": [{"molecule": "COc1ccc2c(c1OCc1ccccc1)C[C@@H](C(=O)O)N(C(=O)C(c1ccccc1)c1ccccc1)C2", "note": "[EMA401]", "values": [{"measurement": "End of study body weights versus control", "setting": "100 mg/kg EMA401 for 8 weeks", "result": "not different"}, {"measurement": "Drug-related toxicity", "setting": "100 mg/kg EMA401 for 8 weeks (Table 16, Tables 17A-17C)", "result": "No drug-related toxicity was observed"}, {"measurement": "Deaths during the study", "setting": "100 mg/kg EMA401 for 8 weeks, one control animal died", "result": "no EMA401-treated animal died"}]}]}
